≈ marks a conversion by molar mass, not a printed value.
What was measured:
TEM-1 β-lactamase [1] = target: T1, TEM-1 β-lactamase (Escherichia coli, UniProt P62593); experiment: TEM-1 β-lactamase inhibition assay (nitrocefin hydrolysis, 486 nm); format: biochemical
Description: (§1) The inhibition of TEM-1 β-lactamase was determined spectrophotometrically. B-lactamase activity was followed by measuring the hydrolysis of nitrocefin, [3-(2,4-dinitrostyryl)-(6R, 7R)-7-(2-thienylacetamido)-ceph-3-em-4-carboxylic acid, E-isomer], (Calbiochem, San Diego, Calif., USA) at 486 nm. Inhibition assays were performed at 25° C. in 50 mM sodium phosphate, 5% DMSO, pH 7.0. […] Inhibitor was added to the enzyme and incubated for ten minutes before the addition of substrate. Inhibition constants (Ki) for the inhibitors are obtained at the desired temperature and solvent conditions by measuring the rate of substrate hydrolysis at increasing amounts of inhibitors.
The competitive inhibition of β-lactamase was determined spectrophotometrically using a Varian (Walnut Creek, Calif.) Cary 100 UV-Visible spectrophotometer. β-lactamase activity was followed by measuring the hydrolysis of nitrocefin, [3-(2,4-dinitrostyryl)-(6R, 7R)-7-(2-thienylacetamido)-ceph-3-em-4-carboxylic acid, E-isomer], (Calbiochem, San Diego, Calif.) at 486 nm. Inhibition assays were performed at 25° C. in 50 mM sodium phosphate, 5% DMSO, pH 7.0. […] Penicillin G (Sigma, St. Louis, Mo.) was also used as a substrate to determine KM and kcat.
Inhibitor was added to protein and incubated for ten minutes before the addition of substrate. Inhibition constants were determined by measuring the loss of P-lactamase activity with increasing inhibitor concentrations and fitting the data to standard equations for competitive inhibition.
(§2) These methods can also be used to express and assay recombinant TEM-1 variant of β-lactamase.

β-lactamase mutant E104K = β-lactamase mutant E104K (Escherichia coli, UniProt P62593, E102K); format: biochemical; conditions: number higher than 1 reflects a loss of potency against mutant
Description: as §1
(§3) Three of the most important mutations are M69I, R244S and E104K.

β-lactamase mutant R244S = β-lactamase mutant R244S (Escherichia coli, UniProt P62593, R241S); format: biochemical; conditions: number higher than 1 reflects a loss of potency against mutant
Description: as §1, §3

β-lactamase mutant M69I = β-lactamase mutant M69I (Escherichia coli, UniProt P62593, M67I); format: biochemical; conditions: number higher than 1 reflects a loss of potency against mutant
Description: as §1, §3

β-lactamase R244S = β-lactamase R244S (Escherichia coli, UniProt P62593, R241S); experiment: Isothermal titration calorimetry, binding enthalpy, R244S mutant
Description: (§4) The binding of the compounds of the present invention to β-lactamase was also measured by isothermal titration calorimetry.
(§5) These experiments, in combination with the inhibition assays, indicate that the compounds identified in this disclosure bind to the wild type as well as drug resistant beta lactamases with favorable binding enthalpies. This is a very important characteristic from the point of view of further optimization since it facilitates the achievement of extremely high affinities and low susceptibilities to drug resistant mutations and naturally occurring polymorphisms.
(§6) Isothermal titration calorimetry was performed on a high-precision VP-ITC titration calorimeter (Microcal Inc., Northampton, Mass.). β-Lactamase solutions were titrated with inhibitors in 50 mM sodium phosphate, 2% DMSO, pH 7.0, with β-lactamase concentrations ranging from 15 to 25 μM and inhibitor concentrations ranging from 300 to 1000 μM. The heat evolved from each injection was obtained by integrating the calorimetric signal. Heat of binding was obtained as the difference between the heat of reaction and the heat of inhibitor dilution. Data were analyzed using Origin 7.0 (OriginLab Corporation, Northampton, Mass.).

β-lactamase E104K = β-lactamase E104K (Escherichia coli, UniProt P62593, E102K); experiment: Isothermal titration calorimetry, binding enthalpy, E104K mutant
Description: as §4, §5, §6

β-lactamase M69I = β-lactamase M69I (Escherichia coli, UniProt P62593, M67I); experiment: Isothermal titration calorimetry, binding enthalpy, M69I mutant
Description: as §4, §5, §6

β-lactamase wt = β-lactamase wt (Escherichia coli, UniProt P62593); experiment: Isothermal titration calorimetry, binding enthalpy, wild type
Description: as §4, §5, §6

TEM-1 β-lactamase [2] = target: T1, TEM-1 β-lactamase; experiment: Isothermal titration calorimetry, binding to TEM-1 β-lactamase (Example 17); conditions: ITC
Description: as §6, §2
Also shown are the results obtained for β-lactamase variant TEM-1.

[3] = test system: methicillin sensitive S. aureus ATCC 25923 (MSSA); experiment: MIC assay, broth microdilution, MSSA; format: cell-based; conditions: for MIC: Staphylococcus aureus, 24 h
Description: (3) methicillin sensitive S. aureus ATCC 25923 (MSSA). This strain was obtained from ATCC and was used as a control.
(§7) The strains were processed according to procedures recommended by ATCC, or procedures that are routinely used. Single colonies of each organism were picked for purification to generate pure working cultures. Prior to each experiment each strain was subcultured on a fresh Mueller-Hinton agar plate (MHA).
(§8) Inocula for the MIC assays were prepared by transferring a tiny portion of one colony from a MHA plate to 2 ml of Mueller-Hinton broth (MHB) such that the estimated cell density was about 10^7 colony forming unit (CFU)/ml. This cell suspension was then further diluted 10-fold (to 10^6 CFU/ml) by transferring the 2 ml cell suspension to 18 ml of MHB. Addition of 50 μl of this dilute cell suspension to 50 μl of growth medium yielded the desired cell density, namely about 5×10^4 CFU/well, or 5×10^5 CFU/ml.
(§9) The MIC value of oxacillin was determined using the broth microdilution procedure recommended by the National Committee of Clinical Laboratory Standards (NCCLS, 2000).
(§10) The MIC experiments were performed in duplicate in 96-well microtiter plates using MHB. A stock solution of 2.6 mg/0.5 ml was prepared in dimethylsulfoxide (DMSO). A total of 8 two-fold serial dilutions were made with DMSO. Initial oxacillin doses used were (μg/ml): 64, 32, 16, 8, 4, 2, 1, and 0.5. Doses were adjusted in the confirmatory experiment, if needed, in order to establish an actual MIC value.
(§11) To each well of a 96 well microtiter plate was added 47.5 μl of MHB. A volume of 2.5 μl of each dilution of oxacillin was then transferred to appropriate wells containing the medium. All wells, except the sterility control wells, were then inoculated with 50 μl of a diluted cell suspension to give a final volume of 100 μl and a final cell density of 5×10^4 CFU/well. The volume in the sterility control wells was adjusted to 100 μl with MHB. A sterile pipette tip was used to mix the contents of each well (one tip was used going from the low to the high concentration in the same column). The microtiter plates were covered with the lids and were placed in large Stratagene Big Blue plates (Cat. # 400041). Four large kimwipes moistened with tap water were placed near the edges of the Stratagene plates to prevent evaporation of the medium. The microtiter plates were incubated for at least 24 hours at 35° C. The plates were then evaluated for growth in each well. Controls included: medium sterility and negative control (medium and bacteria only).
(§12) The procedure used to determine the antimicrobial activity of the compounds of the present invention was identical to the broth microdilution procedure described above with the exception of the preparation of the stock solutions. Stock solution at concentration of 40.96 mg/0.5 ml was prepared in DMSO for each of the compounds. A total of 8 two-fold dilutions were then made in DMSO. A volume of 2.5 μl of each dilution was delivered to appropriate wells. The initial doses used were (μg/ml): 512, 256, 128, 64, 32, 16, 8, and 4.
(§13) A numerical code was used to evaluate the extent of growth as indicated below. • 0: absence of growth • 1: barely visible (faint) growth • 2: fair growth but less than the negative solvent control • 3: growth is equivalent to the negative solvent control.
(§14) The lowest dose at which no visible growth is observed was determined to be the MIC value.
(§15) MIC assays were performed with oxacillin and the four compounds. Each of the compounds was tested at the following 8 doses (μg/ml): 512, 256, 128, 64, 32, 16, 8, and 4. Oxacillin was tested at the following 8 doses (μg/ml): 64, 32, 16, 8, 4, 2, 1, and 0.5.

[4] = test system: methicillin resistant S. aureus ATCC 33591 (MRSA-ATCC); experiment: MIC assay, broth microdilution, MRSA-ATCC; format: cell-based; conditions: for MIC: Staphylococcus aureus, 24 h
Description: (1) methicillin resistant S. aureus ATCC 33591 (MRSA-ATCC). This strain was obtained from American Type Culture Collection (ATCC), Manassas, Md.;
as §7, §8, §9, §10, §11, §12, §13, §14, §15

[5] = test system: methicillin resistant S. aureus from Stanford University Hospital (MRSA-SU); experiment: MIC assay, broth microdilution, MRSA-SU; format: cell-based; conditions: for MIC: Staphylococcus aureus, MRSA, 24 h
Text: (2) methicillin resistant S. aureus from Stanford University Hospital Clinical Microbiology/Virology Laboratory (MRSA-SU). […] Such Staphylococci are also resistant to all penicillins, and all cephalosporins, in addition to all β-lactamase inhibitor combinations (including ampicillin/sulbactarn, amoxicillin/clavulanic acid, piperacillin/tazobactam), imipenem, and meropenem; and
as §7, §8, §9, §10, §11, §12, §13, §14, §15

[6] = Ki, 25° C., 50 mM sodium phosphate, 5% DMSO, pH 7.0, enzyme 5 nM, nitrocefin 167 μM
[7] = Ki from Lineweaver-Burke Analysis, values in parenthesis, Lineweaver-Burke analysis

SMILES | melting point [°C] | Ki (TEM-1 β-lactamase [1]; [6]) [µM] | Loss of potency: ratio of the inhibitory constant between mutant and wild type (Potencywt/Potencymutant), E104K (β-lactamase mutant E104K) | Loss of potency: ratio of the inhibitory constant between mutant and wild type (Potencywt/Potencymutant), R244S (β-lactamase mutant R244S) | Loss of potency: ratio of the inhibitory constant between mutant and wild type (Potencywt/Potencymutant), M69I (β-lactamase mutant M69I) | ΔH R244S (β-lactamase R244S) [kcal/mol] | Ki (TEM-1 β-lactamase [1]; [7]) [µM] | ΔH E104K (β-lactamase E104K) [kcal/mol] | ΔH M69I (β-lactamase M69I) [kcal/mol] | ΔH wt (β-lactamase wt) [kcal/mol] | also measured
O=C(Oc1ccc([N+](=O)[O-])cc1)c1cc(B(O)O)cc([N+](=O)[O-])c1 [Compound (1a), 3-(4-Nitrophenoxycarbonyl)-5-nitrophenylboronic acid] | 205 to 207 | 80 ± 9 | 0.39 | 0.44 | 0.43 | – | – | – | – | – | –
O=C(Oc1cccc([N+](=O)[O-])c1)c1cc(B(O)O)cc([N+](=O)[O-])c1 [Compound (1c), 3-(3-Nitrophenoxycarbonyl)-5-nitrophenylboronic acid] | 185 to 187 | 39 ± 7 | 0.56 | 0.52 | 1.0 | – | – | – | – | – | –
COc1ccc(OC(=O)c2cc(B(O)O)cc([N+](=O)[O-])c2)cc1 [Compound (1d), 3-(4-Methoxyphenoxycarbonyl)-5-nitrophenylboronic acid] | 67 | 42 ± 7 | 0.55 | 0.62 | 0.60 | – | – | – | – | – | –
N#Cc1ccccc1OC(=O)c1cc(B(O)O)cc([N+](=O)[O-])c1 [Compound (1g), 3-(2-Cyanophenoxycarbonyl)-5-nitrophenylboronic acid] | – | 37 ± 3 | 0.32 | 0.26 | 0.40 | -8.2 | 1.37 | -6.397 | -2.46 | -5.52 | –
O=C(Oc1c(Cl)cccc1[N+](=O)[O-])c1cc(B(O)O)cc([N+](=O)[O-])c1 [Compound (1h), 3-(2-Chloro-6-nitrophenoxycarbonyl)-5-nitrophenylboronic acid] | – | 9.5 ± 0.8 | 0.77 | 0.86 | 1.2 | -11.931 | 0.65 | -1.896 | -0.953 | -1.14 | ΔG (TEM-1 β-lactamase [2]): -6.614 kcal/mol; ΔH (TEM-1 β-lactamase [2]): -1.14 kcal/mol; −TΔS (TEM-1 β-lactamase [2]): -5.474 kcal/mol; Ki (TEM-1 β-lactamase [1]; Ki, TEM-1 β-lactamase): 9.5 µM
O=C(Oc1ccccc1Cl)c1cc(B(O)O)cc([N+](=O)[O-])c1 [Compound (1j), 3-(2-Chlorophenoxycarbonyl)-5-nitrophenylboronic acid] | – | 28 ± 2 | 0.15 | 0.37 | 0.33 | -6.877 | 1.31 | -2.756 | -1.693 | -2.145 | –
O=C(O)c1cccc(B(O)O)c1 [Compound F1203] | – | – | – | – | – | – | – | – | – | – | bacteriotoxicity at high dose ([3]; 512 μl/ml, MSSA): not bacteriotoxic; MIC [3]: > 512 µg/mL; bacteriotoxicity at high dose ([4]; 512 μl/ml, MRSA-ATCC): not bacteriotoxic; MIC [4]: > 512 µg/mL; bacteriotoxicity at high dose ([5]; 512 μl/ml, MRSA-SU): not bacteriotoxic; MIC [5]: > 512 µg/mL
O=C(Oc1ccccc1[N+](=O)[O-])c1cc(B(O)O)cc([N+](=O)[O-])c1 [Compound F1204] | – | – | – | – | – | – | – | – | – | – | MIC [3]: 512 µg/mL (≈ 1540 µM); MIC [4]: 256 µg/mL (≈ 771 µM); MIC [5]: 512 µg/mL
COC(=O)c1cc(B(O)O)cc([N+](=O)[O-])c1 [Compound F1212] | – | – | – | – | – | -8.9 | – | -4.5 | -3.3 | -4.7 | Ki (TEM-1 β-lactamase [1]; 25° C., 50 mM sodium phosphate, 5% DMSO, pH 7.0, enzyme 5 nM, nitrocefin 167 μM): 95 µM

Source: US7183267B2, “β-lactamase inhibitors and methods of use thereof” (priority 2003, dated 2007)
